In patent US9982006B2, “2′-chloro aminopyrimidinone and pyrimidine dione nucleosides” (Gilead Sciences, Inc., priority 2014, dated 2018):

Tested on: RSV strain A2
Test: RSV cell culture EC50 determination (infectious cytopathic cell protection assay in HEp-2 cells)
Assay type: cell-based
Details: human respiratory syncytial virus, 96 h; inhibition of RSV-induced cytopathic effect in HEp-2 cells, 4 days, Cell TiterGlo readout
Procedure: RSV Cell Culture EC50 Determination
Antiviral activity against RSV is determined using an infectious cytopathic cell protection assay in HEp-2 cells. In this assay, compounds inhibiting viral infection and/or replication produce a cytoprotective effect against the virus-induced cell killing that can be quantified using a cell viability reagent. The techniques used here are novel adaptations of methods described in published literature (Chapman et al., Antimicrob Agents Chemother. 2007, 51(9):3346-53.)
HEp-2 cells are obtained from ATCC (Manassas, VI) and maintained in MEM media supplemented with 10% fetal bovine serum and penicillin/streptomycin. […]
For antiviral tests, HEp-2 cells are grown in large cell culture flasks to near confluency but not fully so. […] Each compound dilution is transferred in single or quadruplicate samples into dry assay plates, which are stored until assay is ready to go. […]
Subsequently, an infectious mixture is prepared using an appropriate dilution of virus stock previously determined by titration with cells at a density of 50,000/ml and 20 uL/well is added to test plates w/compounds via automation (uFlow, Biotek). […] After the incubation, a cell viability reagent, Cell TiterGlo (Promega, Madison, Wis.) is added to the assay plates, which are incubated briefly, and a luminescent readout is measured (Envision, Perkin Elmer) in all the assay plates. […]

Structure (SMILES): Nc1ccn([C@@H]2O[C@@](CO)(CCl)[C@@H](O)[C@H]2Cl)c(=O)n1 [Example 1, 4-amino-1-((2R,3R,4R,5R)-3-chloro-5-(chloromethyl)-4-hydroxy-5-(hydroxymethyl)tetrahydrofuran-2-yl)pyrimidin-2(1H)-one]
- EC50: > 50 µM
